The values below come from article PMC5772648, “Targeted NUDT5 inhibitors block hormone signaling in breast cancer cells” (Nature Communications, 2018).

Format in all cases: cell-based
Data set [1] has as its target T1, NUDT5 in intact HL-60 cells (Homo sapiens, UniProt Q9UKK9).
T1 construct: endogenous in cells; host or cells: HL-60
In words: intact cell CETSA. As to conditions: 20 µM, 83 °C. On the procedure: (§1) For CETSA experiments with cells treated in culture, 1 × 10^6 HL-60 were treated with DMSO (0.1 % v/v final) or 20 µM compound for 3 h at 37 °C and 5% CO2 in a humidified incubator. T47D^WT cells were treated instead with 80 µM TH1659, 15 µM TH5423/5424 and 1.5 µM TH5427. The cells were harvested, washed twice with PBS and resuspended in TBS with protease inhibitors, as above. Heating was identical as before, except that immediately following heating, the cell suspensions were snap frozen in a dry ice/ethanol bath and freeze-thawed, as previously, to lyse cells. Centrifugation at 20 000 × g for 20 min at 4 °C removed cellular debris and protein aggregates, and lysates were prepared for western blotting.

Data set [2] has as its target T2, NUDT5 in HL-60 cells (Homo sapiens, UniProt Q9UKK9).
T2 construct: endogenous in cells; host or cells: HL-60
As to the kind of experiment: isothermal dose-response fingerprint CETSA (ITDRFCETSA). The settings on record: 20 to 0.06 µM. On the procedure:
Treatments, heating and lysis procedures for ITDRFCETSA were performed identically to those for CETSA experiments, except NUDT5 inhibitors were added to cells at serial dilutions from 20 to 0.06 µM. Curves were fit by sigmoidal dose-response (variable slope) to derive EC50 values in GraphPad Prism 7.

Data set [3] deals with T2, NUDT5 in HL-60 cells. In words: CETSA melt curve (apparent Tagg). On the procedure: as §1, with “blotting. […]” for “blotting.”
Supplementary Figure 6: Thermal shift of NUDT5 with TH5427 by CETSA.
CETSA melt curve comparing DMSO-treated HL-60 cells to those treated with 2.5 or 20 µM TH5427. All points are shown for n=2 experiments and are normalized to SOD1 band intensity as a loading control. Representative, cropped western blots are shown. Apparent Tagg temperatures are shown below. […]

The target of another data set is T3, NUDT5 in T47D cells (Homo sapiens, UniProt Q9UKK9).
T3 construct: endogenous in cells; host or cells: T47D (T47D^WT)
As to the kind of experiment: intact cell CETSA in T47D cells. The settings on record: 1.5 µM TH5427, 83 °C. The method, then:
as §1

In the next data set the test system is HL-60 or U-2 OS cells. In words: cell viability by resazurin. As to conditions: 72 h, Supplementary Figs. 7 and 10b (HL-60, U-2 OS, T47D). On the procedure:
Cell viability was assessed by resazurin[9]. 5000 HL-60 cells (or 1000 U-2 OS/2000 T47D cells) were seeded per well on a 96-well plate. The following morning, compounds (or the equivalent amount of DMSO) were added to obtain the final concentrations indicated and the cells were incubated at 37 °C for 72 h with resazurin added at 0.02 mg/mL for the last 2–6 h. Resorufin fluorescence was detected at […] with a Hidex Sense fluorescent plate reader. Viability curves were fit using the sigmoidal dose-response (variable slope) function in GraphPad Prism 7.
(Alamar Blue is a resazurin reagent that responds to reducing activity.)

The subject of data set [4] is histone H1 displacement in T47D cells. In words: histone H1 displacement by chromatin immunoprecipitation after R5020. The settings on record: 30 min R5020. The method, then:
(§2) For hormone and inhibitor treatments, normal T47D^WT cells or cells containing a single copy of luciferase under the control of the mouse mammary tumor virus (MMTV) promoter (T47D^M) were used[23]. Prior to hormone induction, cells were grown in phenol red-free RPMI medium supplemented with 10% dextran-coated charcoal-treated FBS (DCC/FBS). After 16 h in serum-free conditions, cells were pre-incubated with DMSO (vehicle) or NUDT5 inhibitor for 2 h at the indicated dose before addition of R5020 (10 nM) or vehicle (ethanol, EtOH) for the allotted time.
ChIP assays were performed using a histone H1-specific antibody, AE4 (Abcam)[54]. 1 × 10^7 T47D^M cells (plated and treated with hormone and/or inhibitor, as described above) were cross-linked for 10 min with 1% formaldehyde. Lysates were sonicated (Biorupter sonicator, Diagenode) resulting in DNA fragments with a size range of 200-300 bp. […] The resultant eluted DNA was quantified by Qubit 3.0 Fluorometer (Life Technologies) and qPCR (LightCycler FastStart DNA Master SYBR Green I, Roche). The fold enrichment of target sequences in the immunoprecipitated (IP) compared to input (I) fractions were calculated using the comparative Ct method (2^Ct(IP)−Ct(I)). […]

In another data set the test system is T47D^M cells. As to the kind of experiment: progesterone-dependent gene expression by RT-qPCR. The settings on record: 1.5 µM, 6 h R5020. On the procedure: as §2
Total RNA and cDNA were prepared using an RNeasy Plus kit (Qiagen) and Superscript II kit (Invitrogen), respectively, according to the manufacturers’ instructions. Quantification of mRNA abundance of specific gene products was performed by RT-qPCR (LightCycler FastStart DNA Master SYBR Green I), normalized to GAPDH and expressed as relative RNA abundance over time zero (no R5020 treatment). Primer sequences are available upon request.
A general note: Quantitative PCR measures a nucleic acid by following its amplification.

The test system of the next data set is T47D cells. In words: R5020-induced proliferation by BrdU incorporation. As to conditions: 1.5 µM, 24 h after R5020. On the procedure: T47D^M cells (1 × 10^4) were plated in a 96-well plate in the presence or absence of inhibitors 2 h prior to R5020 addition. The cell proliferation ELISA BrdU chemiluminescent assay (Roche) was performed according to the manufacturer’s instructions 24 h following hormone addition.

Molecules are shown by their SMILES.

On to `Cn1c(=O)c2c(nc(N3CCNCC3)n2Cc2nnc(-c3ccc(Cl)c(Cl)c3)o2)n(C)c1=O` [TH5427], for which, in data set [1], the “NUDT5 stabilization in intact cells” value is “stabilized NUDT5 to nearly the same levels as observed in the 37 °C DMSO control”. Further, the EC50 at NUDT5 in HL-60 cells [2] (read-out: ITDRFCETSA apparent EC50) is 2100 nM. For the same compound, at NUDT5 in HL-60 cells [3], the “shift of NUDT5 apparent Tagg” value is “≈ 8 °C”. In addition, the “NUDT5 stabilization in T47D cells” value at NUDT5 in T47D cells is recorded as “demonstrated the best ability to stabilize NUDT5 in T47D cells”. Besides, the “toxicity in cell lines tested” value in the data set on HL-60 or U-2 OS cells was “non-toxic in cell lines tested up to 20 µM”. In addition, in data set [4] (1.5 µM), the “histone H1 displacement after R5020” value is “inhibited histone H1 displacement”. In the data set on T47D^M cells, the “progestin-dependent gene expression, EGFR and MMTV-luc” value is “significantly disrupted EGFR and MMTV-luc expression”; the “progestin-independent gene expression, CCNB1 and RBM24” value is “did not affect the expression of CCNB1 or RBM24”. Besides, in the data set on T47D cells, the “progestin-dependent proliferation, BrdU incorporation” value is “abrogated the progestin-dependent proliferation response”.
`CCN1CCN(c2nc3c(c(=O)n(C)c(=O)n3C)n2Cc2nnc(-c3ccc(Cl)c(Cl)c3)o2)CC1` [TH5424]: the “NUDT5 stabilization in intact cells” value in data set [1] is “stabilized NUDT5 to nearly the same levels as observed in the 37 °C DMSO control”. Also, the “ITDRFCETSA dose-dependent stabilization” value on NUDT5 in HL-60 cells [2] is listed as “could also dose-dependently stabilize NUDT5, however much higher concentrations were required”. Further, the “histone H1 displacement after R5020” value in data set [4] (15 µM) is listed as “moderate effects”.

One may read the EC50 as the midpoint of the concentration-response curve.
